Source: ChEMBL document CHEMBL1201862, “PubChem BioAssay data set” (2004)
The source made the active and inactive calls.

Columns and labels:
[1] = Luminescence-based dose response cell-based high throughput screening assay for cytotoxic compounds using the IEC-6 intestinal epithelial cell line. [Related pubchem assays: 1858 (Summary AID.), 1825 (Counterscreen.), 1907 (Confirmation screen.)]; assay type: functional
[2] = molecular target: T1, Ubiquitin-conjugating enzyme E2 N (Homo sapiens, UniProt P61088); assay type: functional;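 further: Dose-response confirmation in a TR-FRET assay detecting UBC13-driven polyubiquitin chain formation, inhibition measured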
T1 sequence (P61088 whole entry): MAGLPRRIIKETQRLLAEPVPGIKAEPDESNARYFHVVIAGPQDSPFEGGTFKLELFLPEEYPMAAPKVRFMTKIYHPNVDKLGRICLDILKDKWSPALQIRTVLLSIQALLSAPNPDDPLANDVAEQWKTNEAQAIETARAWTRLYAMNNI

[3] = test system: Vero; assay: cells; assay type: functional, cell-based; conditions: Chlorocebus sabaeus
[4] = test system: BJ; assay: cells; assay type: functional, cell-based; conditions: Homo sapiens
[5] = Luminescence Cell-Based Dose Retest to Confirm Inhibitors of Cancer Stem Cells. [Related pubchem assays (depositor defined):AID2717, AID2721]; assay type: functional; conditions: Homo sapiens
[6] = test system: BJ; assay: cytotoxicity toward BJ-TERT fibroblasts, dose response, cell-based, RAS-independent, luminescence (AID 1933); assay type: functional; conditions: Homo sapiens
[7] = molecular target: T2, Endoribonuclease toxin MazF (Escherichia coli K-12, UniProt P0AE70); assay: fluorescent RNA oligo signal without MazF, dose response, counter-screen for MazEF activator project, biochemical, fluorescence, single-stranded RNase substrate (AID 588502); assay type: functional
T2 sequence (P0AE70 whole entry): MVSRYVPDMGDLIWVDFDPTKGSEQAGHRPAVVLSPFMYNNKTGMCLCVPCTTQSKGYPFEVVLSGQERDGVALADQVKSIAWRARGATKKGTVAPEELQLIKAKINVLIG

[8] = cytotoxicity toward DRD oncogenic fibroblasts, dose response, cell-based, non-viral oncogenic, luminescence (AID 1934); assay type: functional; conditions: Homo sapiens
[9] = test system: BJ; assay: cytotoxicity toward BJ-TERT-LT-ST fibroblasts, dose response, cell-based, RAS-independent, luminescence (AID 1935); assay type: functional; conditions: Homo sapiens;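 further: BJ fibroblasts immortalized with TERT plus LT and ST oncogenes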
[10] = M. tuberculosis H37Rv growth inhibitors, H37Rv strain (AID 1626); assay type: functional
[11] = molecular target: T2, Endoribonuclease toxin MazF; assay: MazF toxin RNase activators, dose response, biochemical, fluorescence, single-stranded RNA substrate, uHTS hits (AID 588481); assay type: functional
[12] = growth suppression of PTEN-null colon cells, dose response, cell-based, HCT116 PTEN knockout (AID 1047); assay type: functional;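 further: HCT116 colon tumor cells with PTEN knocked out; cells exposed to compound for 60 hours before readout; potency for loss of cell viability measured by luminescence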
[13] = test system: Vero; assay: cells; assay type: functional; conditions: Chlorocebus sabaeus
[14] = growth suppression of beta-catenin-knockout colon cells, dose response, cell-based, HCT116, human colon tumor (AID 1045); assay type: functional;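 further: HCT116 colon tumor cells with beta catenin knocked out; cells exposed to compound for 60 hours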
[15] = molecular target: Serine/threonine-protein phosphatase (Homo sapiens, UniProt Q9BPW0); assay: PP5 phosphatase inhibitors, dose response, biochemical, fluorescence (AID 2395)
[16] = molecular target: T3, Replicative DNA helicase DnaB (Mycobacterium tuberculosis, UniProt P9WMR3); assay: DnaB intein splicing inhibitors, dose response, biochemical, cell-free fluorescence (AID 449749); assay type: functional
T3 sequence (P9WMR3 whole entry): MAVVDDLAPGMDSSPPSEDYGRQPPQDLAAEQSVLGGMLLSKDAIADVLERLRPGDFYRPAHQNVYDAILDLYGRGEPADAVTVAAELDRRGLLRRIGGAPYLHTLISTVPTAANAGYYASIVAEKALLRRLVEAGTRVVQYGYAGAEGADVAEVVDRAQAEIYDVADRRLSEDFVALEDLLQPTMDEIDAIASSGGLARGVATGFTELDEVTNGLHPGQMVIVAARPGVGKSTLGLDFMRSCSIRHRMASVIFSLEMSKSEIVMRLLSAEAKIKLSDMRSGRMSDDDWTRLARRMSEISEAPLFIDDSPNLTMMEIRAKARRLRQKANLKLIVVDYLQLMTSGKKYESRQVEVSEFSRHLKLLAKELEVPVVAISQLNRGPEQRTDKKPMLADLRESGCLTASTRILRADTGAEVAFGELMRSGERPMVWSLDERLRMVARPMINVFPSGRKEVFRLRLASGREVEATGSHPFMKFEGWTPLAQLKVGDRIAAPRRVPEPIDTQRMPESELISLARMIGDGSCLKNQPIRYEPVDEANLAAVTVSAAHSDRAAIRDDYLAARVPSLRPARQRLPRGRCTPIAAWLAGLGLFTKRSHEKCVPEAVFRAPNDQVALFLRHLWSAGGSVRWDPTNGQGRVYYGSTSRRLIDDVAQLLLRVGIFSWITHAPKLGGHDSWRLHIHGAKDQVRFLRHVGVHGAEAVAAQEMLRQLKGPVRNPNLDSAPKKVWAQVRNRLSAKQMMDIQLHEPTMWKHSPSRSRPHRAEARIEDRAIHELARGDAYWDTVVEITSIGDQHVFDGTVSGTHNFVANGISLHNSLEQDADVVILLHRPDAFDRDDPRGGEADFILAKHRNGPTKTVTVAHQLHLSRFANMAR

[17] = molecular target: Serine/threonine-protein phosphatase PP1-alpha catalytic subunit (Homo sapiens, UniProt P62136); assay: PP1 phosphatase inhibitors, dose response, biochemical, fluorescence (AID 2394)
[18] = molecular target: T4, Protein RecA (Mycobacterium tuberculosis, UniProt P9WHJ3); assay: Fluorescence Cell-Free Homogeneous Dose Retest to Identify Inhibitors of RecA-Intein Splicing Activity. [Related pubchem assays (depositor defined):AID2097, AID2223, AID489010, AID492950]; assay type: functional
T4 sequence (P9WHJ3 whole entry): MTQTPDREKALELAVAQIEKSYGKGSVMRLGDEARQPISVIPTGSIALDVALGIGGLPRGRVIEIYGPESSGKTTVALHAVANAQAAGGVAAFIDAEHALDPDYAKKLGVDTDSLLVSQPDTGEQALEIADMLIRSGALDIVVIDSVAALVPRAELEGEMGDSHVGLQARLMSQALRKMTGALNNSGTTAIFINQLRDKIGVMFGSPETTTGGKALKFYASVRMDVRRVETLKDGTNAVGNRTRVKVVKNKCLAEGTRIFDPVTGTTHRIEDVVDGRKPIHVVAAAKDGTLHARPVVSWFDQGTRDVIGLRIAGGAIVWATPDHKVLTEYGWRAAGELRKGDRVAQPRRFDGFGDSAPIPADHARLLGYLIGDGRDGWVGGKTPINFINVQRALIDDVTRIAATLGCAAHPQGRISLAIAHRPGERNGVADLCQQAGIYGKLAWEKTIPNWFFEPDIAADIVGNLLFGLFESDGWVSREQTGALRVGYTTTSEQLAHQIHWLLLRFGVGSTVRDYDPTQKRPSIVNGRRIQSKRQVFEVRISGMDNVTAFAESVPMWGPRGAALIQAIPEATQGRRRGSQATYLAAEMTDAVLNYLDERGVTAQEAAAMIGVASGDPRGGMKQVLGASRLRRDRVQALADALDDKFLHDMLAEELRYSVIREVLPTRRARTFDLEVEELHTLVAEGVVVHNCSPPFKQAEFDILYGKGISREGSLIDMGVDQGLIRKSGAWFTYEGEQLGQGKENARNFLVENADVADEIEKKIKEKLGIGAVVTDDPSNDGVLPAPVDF

[19] = molecular target: Sphingosine 1-phosphate receptor 2 (Homo sapiens, UniProt O95136); assay: Dose Response Cell Based Assay for Agonists of the S1P2 Receptor of Purchased Analogues. [Related pubchem assays: 729, 843, 854, 736 ]; assay type: functional
[20] = molecular target: Transitional endoplasmic reticulum ATPase (Homo sapiens, UniProt P55072); assay: Luminescence dose response biochemical high throughput screening assay for inhibitors of the p97 ATPase: synthesized compounds. [Related pubchem assays: 1481, 1517 ]
[21] = molecular target: Transitional endoplasmic reticulum ATPase (Homo sapiens, UniProt P55072, C522A); assay: Luminescence counterscreen assay for p97 inhibitors: dose response biochemical high throughput screening assay to identify inhibitors of the C522A mutant p97 ATPase: synthesized compounds. [Related pubchem assays: 1481, 1517, 1551 ]
[22] = molecular target: Potassium voltage-gated channel subfamily KQT member 2 (Rattus norvegicus, UniProt O88943, W236L); assay: KCNQ2 channel potentiators, dose response, mechanism study for KCNQ2 potentiator project, cell-based, automated electrophysiology (AID 2603); assay type: functional
[23] = Shn3 3'UTR reporter inhibitors, dose response, cell-based, Clone20 osteoblasts, firefly luciferase, cherry-picked (AID 624132); assay type: functional;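 further: firefly luciferase luminescence from reporter carrying the Shn3 3'UTR in osteoblasts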
[24] = control 3'UTR Renilla luciferase suppression, dose response, counter-screen for Shn3 inhibitor project, cell-based, Clone20-Shn3RL, cherry-picked (AID 624133); assay type: functional
[25] = HepG2 cell cytotoxicity, dose response, cytotoxicity control for Shn3 inhibitor project, CellTiter-Glo, cherry-picked (AID 624134); assay type: functional, cell-based
[26] = molecular target: T5, Hepatocyte nuclear factor 4-alpha (Homo sapiens, UniProt P41235); assay type: functional, cell-based;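 further: biochemical luminescence-based dose-response counterscreen measuring inhibition of HNF4 dimerization, run alongside a screen for blockers of ABHD5–perilipin-5 interaction; split luciferase complementation of HNF4 fusion proteins in cell lysate measuring dimerization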
T5 sequence (P41235 whole entry): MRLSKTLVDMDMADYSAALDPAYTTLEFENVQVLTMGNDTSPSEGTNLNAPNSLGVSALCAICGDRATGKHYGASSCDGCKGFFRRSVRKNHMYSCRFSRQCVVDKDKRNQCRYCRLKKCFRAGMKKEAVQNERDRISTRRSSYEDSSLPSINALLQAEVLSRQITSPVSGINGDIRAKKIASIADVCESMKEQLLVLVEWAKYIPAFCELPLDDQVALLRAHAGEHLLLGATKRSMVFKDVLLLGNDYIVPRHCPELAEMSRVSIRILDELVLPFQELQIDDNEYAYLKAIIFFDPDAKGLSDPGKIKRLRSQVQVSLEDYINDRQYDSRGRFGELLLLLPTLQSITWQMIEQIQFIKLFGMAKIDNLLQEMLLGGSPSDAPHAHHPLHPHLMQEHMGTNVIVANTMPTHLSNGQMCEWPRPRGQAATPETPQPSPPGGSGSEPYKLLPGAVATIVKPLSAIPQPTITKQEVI

[27] = molecular target: T6, Mannose-6-phosphate isomerase (Homo sapiens, UniProt P34949); assay: inhibitors of human PMI, primary screen, biochemical, fluorescence intensity, coupled assay (AID 1209)
T6 sequence (P34949 whole entry): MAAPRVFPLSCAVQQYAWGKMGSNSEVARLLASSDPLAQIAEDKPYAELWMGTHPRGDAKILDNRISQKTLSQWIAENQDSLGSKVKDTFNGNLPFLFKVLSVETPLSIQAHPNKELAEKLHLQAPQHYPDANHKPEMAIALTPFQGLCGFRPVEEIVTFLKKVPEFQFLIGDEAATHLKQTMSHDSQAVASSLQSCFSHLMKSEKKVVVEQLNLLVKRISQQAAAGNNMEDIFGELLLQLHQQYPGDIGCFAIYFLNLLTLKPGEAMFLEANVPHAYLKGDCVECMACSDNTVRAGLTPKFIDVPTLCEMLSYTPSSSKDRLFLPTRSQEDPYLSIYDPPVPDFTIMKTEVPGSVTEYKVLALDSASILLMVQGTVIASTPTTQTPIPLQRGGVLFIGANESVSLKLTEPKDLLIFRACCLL

[28] = molecular target: Nonstructural protein 1 (Influenza A virus, UniProt Q194T2); assay type: functional, Influenza A virus (A/California/07/2009(H1N1))
[29] = molecular target: Genome polyprotein (dengue virus type 2, UniProt P29990); assay: Dengue-2 NS5 methyltransferase inhibitors, primary screen, biochemical, confirmation dose response (AID 588689); assay type: functional
[30] = molecular target: T6, Mannose-6-phosphate isomerase; assay: human PMI inhibitors, high substrate, primary screen, biochemical, fluorescence intensity, high mannose 6-phosphate (AID 1220)
[31] = cytotoxicity in HPDE-C7 cells, cell-based, fluorescence, HTS (AID 430); assay type: functional; conditions: Homo sapiens
[32] = cytotoxicity in KRAS-transformed pancreatic duct cells, primary screen, cell-based, fluorescence, HTS (AID 431); assay type: functional; conditions: Homo sapiens;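 further: cell line used: HPDE-C7K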

Sequence of Serine/threonine-protein phosphatase (Q9BPW0 whole entry): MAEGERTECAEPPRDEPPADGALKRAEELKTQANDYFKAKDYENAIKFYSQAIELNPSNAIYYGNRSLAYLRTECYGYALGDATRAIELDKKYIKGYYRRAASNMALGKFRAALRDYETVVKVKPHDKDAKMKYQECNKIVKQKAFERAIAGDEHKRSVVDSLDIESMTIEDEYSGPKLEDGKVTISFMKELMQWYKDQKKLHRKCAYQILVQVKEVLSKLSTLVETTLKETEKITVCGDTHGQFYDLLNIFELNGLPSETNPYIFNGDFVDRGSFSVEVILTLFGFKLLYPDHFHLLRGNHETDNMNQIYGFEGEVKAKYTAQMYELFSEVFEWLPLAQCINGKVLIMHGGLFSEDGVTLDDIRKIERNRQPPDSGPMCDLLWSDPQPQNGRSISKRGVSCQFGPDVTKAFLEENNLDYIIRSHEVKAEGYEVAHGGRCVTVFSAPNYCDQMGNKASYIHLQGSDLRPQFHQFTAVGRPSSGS
Sequence of Transitional endoplasmic reticulum ATPase (Homo sapiens, UniProt P55072) (P55072 whole entry): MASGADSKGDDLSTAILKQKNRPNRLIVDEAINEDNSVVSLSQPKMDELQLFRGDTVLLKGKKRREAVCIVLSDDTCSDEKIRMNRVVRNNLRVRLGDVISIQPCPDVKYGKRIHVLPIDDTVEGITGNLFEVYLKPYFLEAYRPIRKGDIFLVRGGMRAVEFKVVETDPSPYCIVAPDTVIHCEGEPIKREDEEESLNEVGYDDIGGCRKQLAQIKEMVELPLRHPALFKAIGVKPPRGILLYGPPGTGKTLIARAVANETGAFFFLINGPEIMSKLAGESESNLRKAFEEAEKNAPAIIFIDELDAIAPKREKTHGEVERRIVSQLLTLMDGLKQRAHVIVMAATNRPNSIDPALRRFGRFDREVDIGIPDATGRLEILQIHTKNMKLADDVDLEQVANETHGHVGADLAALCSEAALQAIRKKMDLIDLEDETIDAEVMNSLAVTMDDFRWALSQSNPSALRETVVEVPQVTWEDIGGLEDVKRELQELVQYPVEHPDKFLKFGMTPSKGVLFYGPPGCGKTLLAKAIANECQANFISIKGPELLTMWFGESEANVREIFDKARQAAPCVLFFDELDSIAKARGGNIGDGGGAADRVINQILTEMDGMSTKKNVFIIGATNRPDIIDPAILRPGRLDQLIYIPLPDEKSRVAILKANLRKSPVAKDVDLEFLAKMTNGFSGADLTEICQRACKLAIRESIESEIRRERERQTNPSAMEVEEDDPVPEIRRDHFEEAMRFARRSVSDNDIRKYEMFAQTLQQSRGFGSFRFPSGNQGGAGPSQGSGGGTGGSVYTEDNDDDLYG
Sequence of Sphingosine 1-phosphate receptor 2 (O95136 whole entry): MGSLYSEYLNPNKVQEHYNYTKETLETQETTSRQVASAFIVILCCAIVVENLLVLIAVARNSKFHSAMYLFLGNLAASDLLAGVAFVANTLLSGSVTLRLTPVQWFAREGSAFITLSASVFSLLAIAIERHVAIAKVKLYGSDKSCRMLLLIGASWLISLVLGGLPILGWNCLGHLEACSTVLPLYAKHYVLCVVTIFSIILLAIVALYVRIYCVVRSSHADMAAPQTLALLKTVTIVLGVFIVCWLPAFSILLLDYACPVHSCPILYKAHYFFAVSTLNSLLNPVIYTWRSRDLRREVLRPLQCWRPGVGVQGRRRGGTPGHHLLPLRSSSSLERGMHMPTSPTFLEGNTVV
Sequence of Genome polyprotein (P29990 2492-3391 limits assumed): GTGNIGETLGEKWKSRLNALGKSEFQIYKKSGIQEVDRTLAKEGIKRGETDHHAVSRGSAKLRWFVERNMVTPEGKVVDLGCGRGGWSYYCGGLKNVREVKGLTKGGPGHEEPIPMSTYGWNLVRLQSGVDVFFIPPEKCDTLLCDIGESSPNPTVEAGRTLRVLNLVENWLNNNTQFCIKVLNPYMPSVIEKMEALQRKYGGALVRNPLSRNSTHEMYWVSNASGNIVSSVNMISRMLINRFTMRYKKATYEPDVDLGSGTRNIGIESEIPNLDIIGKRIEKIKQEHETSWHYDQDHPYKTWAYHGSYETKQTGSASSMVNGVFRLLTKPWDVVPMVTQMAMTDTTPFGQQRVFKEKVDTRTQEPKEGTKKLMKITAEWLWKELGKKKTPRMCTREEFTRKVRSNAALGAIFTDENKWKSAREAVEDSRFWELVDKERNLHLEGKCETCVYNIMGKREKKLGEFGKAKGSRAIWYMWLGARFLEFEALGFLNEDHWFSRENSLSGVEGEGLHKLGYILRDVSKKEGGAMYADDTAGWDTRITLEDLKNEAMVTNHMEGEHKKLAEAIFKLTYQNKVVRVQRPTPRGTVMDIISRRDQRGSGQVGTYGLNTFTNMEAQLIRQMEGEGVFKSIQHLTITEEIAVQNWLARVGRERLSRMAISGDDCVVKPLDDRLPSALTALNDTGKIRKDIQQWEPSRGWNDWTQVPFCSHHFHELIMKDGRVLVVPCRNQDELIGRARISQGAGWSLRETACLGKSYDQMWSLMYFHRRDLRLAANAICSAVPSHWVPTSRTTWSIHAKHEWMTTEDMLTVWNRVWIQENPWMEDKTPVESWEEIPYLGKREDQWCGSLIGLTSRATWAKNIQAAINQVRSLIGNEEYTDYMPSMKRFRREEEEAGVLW
Sequence of Potassium voltage-gated channel subfamily KQT member 2 (O88943 whole entry W236L): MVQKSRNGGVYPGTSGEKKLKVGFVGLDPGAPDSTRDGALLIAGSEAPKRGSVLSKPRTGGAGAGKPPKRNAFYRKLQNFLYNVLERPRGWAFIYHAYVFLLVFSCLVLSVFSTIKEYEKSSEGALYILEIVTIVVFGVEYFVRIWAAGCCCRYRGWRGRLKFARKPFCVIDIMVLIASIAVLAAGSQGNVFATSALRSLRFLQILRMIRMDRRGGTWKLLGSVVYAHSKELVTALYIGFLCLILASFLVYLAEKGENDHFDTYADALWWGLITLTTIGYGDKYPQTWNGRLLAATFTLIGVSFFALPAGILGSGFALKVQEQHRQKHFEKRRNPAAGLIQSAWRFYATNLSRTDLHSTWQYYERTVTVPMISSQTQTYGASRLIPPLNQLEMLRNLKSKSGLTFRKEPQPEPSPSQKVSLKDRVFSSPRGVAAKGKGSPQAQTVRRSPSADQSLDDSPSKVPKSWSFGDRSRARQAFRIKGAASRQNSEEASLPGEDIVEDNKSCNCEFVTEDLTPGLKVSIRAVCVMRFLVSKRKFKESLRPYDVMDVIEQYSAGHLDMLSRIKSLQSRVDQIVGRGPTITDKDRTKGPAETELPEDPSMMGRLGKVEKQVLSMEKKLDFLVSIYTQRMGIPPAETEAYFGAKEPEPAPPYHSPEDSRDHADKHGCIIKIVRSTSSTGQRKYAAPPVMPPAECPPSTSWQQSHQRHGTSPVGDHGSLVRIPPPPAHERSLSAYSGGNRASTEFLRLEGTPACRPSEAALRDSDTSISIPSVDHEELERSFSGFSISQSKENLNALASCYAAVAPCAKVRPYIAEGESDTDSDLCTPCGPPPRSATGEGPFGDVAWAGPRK
Sequence of Serine/threonine-protein phosphatase PP1-alpha catalytic subunit (P62136 whole entry): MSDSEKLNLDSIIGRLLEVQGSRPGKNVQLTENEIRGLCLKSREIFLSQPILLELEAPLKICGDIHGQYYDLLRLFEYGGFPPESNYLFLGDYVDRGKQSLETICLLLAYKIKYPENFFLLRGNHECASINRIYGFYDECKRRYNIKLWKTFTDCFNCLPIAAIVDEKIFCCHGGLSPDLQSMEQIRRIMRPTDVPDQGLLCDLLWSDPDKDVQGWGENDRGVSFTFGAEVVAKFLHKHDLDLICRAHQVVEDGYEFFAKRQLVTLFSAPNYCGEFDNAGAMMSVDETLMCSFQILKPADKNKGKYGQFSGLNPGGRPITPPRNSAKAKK
Sequence of Transitional endoplasmic reticulum ATPase (Homo sapiens, UniProt P55072, C522A) (P55072 2-806 C522A limits assumed): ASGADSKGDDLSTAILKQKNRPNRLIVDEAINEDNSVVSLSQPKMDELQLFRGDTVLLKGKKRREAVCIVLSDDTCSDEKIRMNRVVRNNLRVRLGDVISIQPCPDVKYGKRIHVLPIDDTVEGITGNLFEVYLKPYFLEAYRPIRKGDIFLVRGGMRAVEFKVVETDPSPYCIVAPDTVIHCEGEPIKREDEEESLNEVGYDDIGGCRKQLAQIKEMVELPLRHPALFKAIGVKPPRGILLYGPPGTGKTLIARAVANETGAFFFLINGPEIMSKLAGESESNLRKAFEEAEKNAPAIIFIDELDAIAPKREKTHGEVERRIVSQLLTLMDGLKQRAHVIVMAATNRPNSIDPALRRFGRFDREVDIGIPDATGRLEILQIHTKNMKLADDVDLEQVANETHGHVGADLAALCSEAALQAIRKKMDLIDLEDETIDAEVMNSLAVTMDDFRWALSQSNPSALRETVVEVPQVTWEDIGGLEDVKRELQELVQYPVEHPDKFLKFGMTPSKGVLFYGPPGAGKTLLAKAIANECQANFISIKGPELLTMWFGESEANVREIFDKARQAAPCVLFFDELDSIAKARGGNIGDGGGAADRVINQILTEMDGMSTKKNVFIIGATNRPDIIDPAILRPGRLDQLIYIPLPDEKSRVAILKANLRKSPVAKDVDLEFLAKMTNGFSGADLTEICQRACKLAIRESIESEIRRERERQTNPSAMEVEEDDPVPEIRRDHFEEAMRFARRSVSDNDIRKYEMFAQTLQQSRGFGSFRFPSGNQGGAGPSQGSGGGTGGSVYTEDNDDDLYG
Sequence of Nonstructural protein 1 (Q194T2 whole entry): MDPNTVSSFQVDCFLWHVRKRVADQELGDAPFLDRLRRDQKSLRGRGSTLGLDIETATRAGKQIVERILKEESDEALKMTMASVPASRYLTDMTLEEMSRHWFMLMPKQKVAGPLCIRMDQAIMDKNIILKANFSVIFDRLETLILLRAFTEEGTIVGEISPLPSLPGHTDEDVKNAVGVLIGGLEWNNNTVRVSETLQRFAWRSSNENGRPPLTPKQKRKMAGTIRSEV

CCCC[C@H](CN[C@@H](CNC)[C@H](C)CC)NCCC12CCC(CC1)C2
IC50 [1]: 6.54 µM (active) | IC50 [2]: > 20 µM (inactive)

Cc1cccc(-n2c(/C=C/c3ccc([N+](=O)[O-])o3)nc3ccccc3c2=O)c1
IC50 [3]: 10.8 µM (active) | EC50 [4]: 4.86 µM (inconclusive) | AC50 [5]: 1.72 µM (active) | EC50 [6]: 5.28 µM (inconclusive) | EC50 [7]: 8.27 µM (active) | EC50 [8]: 5.82 µM (active) | EC50 [9]: 3.69 µM (inconclusive) | IC50 [10]: > 100 µM (active) | EC50 [11]: > 99 µM (inactive) | EC50 [12]: 0.552 µM (active) | CC50 [13]: > 25 µM (active) | EC50 [14]: 0.61 µM (active)

CCOC(=O)c1nn(-c2ccc(C)cc2)c(=O)c2c(N)scc12
IC50 [15]: 9.99 µM (active) | AC50 [16]: 89.9 µM (active) | IC50 [17]: > 67 µM (not active) | EC50 [18]: 11.4 µM (active)

Cc1cc(C(=O)COC(=O)c2ccco2)c(C)n1Cc1ccccc1
EC50 [19]: > 30 µM (not active)

N#Cc1ccc(Nc2nc(-c3ccc(O)cc3O)cs2)cc1
IC50 [20]: 4.71 µM (active) | IC50 [21]: > 50 µM (not active)

Cc1nnc(NC(=O)c2nc(S(=O)(=O)Cc3ccccc3C)ncc2Cl)s1
EC50 [22]: 692 µM (active) | AC50 [16]: > 380 µM (inactive) | EC50 [18]: > 380 µM (inactive) | AC50 [23]: 0.812 µM (active) | AC50 [24]: 14.5 µM (active) | AC50 [25]: 57 µM (active) | IC50 [26]: 4.41 µM (active)

Cc1coc2c(O)cc3c(c12)OC1(N2CCCCC2)C(=O)NCCCC31 (centres undefined)
IC50 [27]: 35.2 µM (active) | IC50 [28]: > 100 µM (active) | IC50 [29]: 27.4 µM (active) | IC50 [30]: > 50 µM (not active) | EC50 [31]: 11 µM (active) | EC50 [32]: 11.3 µM (active)
